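Exposure lasted 48 hours, with cells grown in 96-well plates and compounds tested at five concentrations. GI50 = concentration required for 50% inhibition of growth.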 Active and inactive are the calls of the source. Cut-off read from the data, not from the text of the source: active = GI50 up to about 1.1 µM and inactive = higher.
How the values were obtained:
Assay in all cases: DTP human tumour cell line panel, 48 h
[1] = tested on: LOX IMVI
[2] = tested on: MDA-N
[3] = tested on: ACHN
[4] = tested on: MOLT-4
[5] = tested on: NCI-H460
[6] = tested on: UACC-257
[7] = tested on: CCRF-CEM
[8] = tested on: K562
[9] = tested on: UO-31
[10] = tested on: SF-539
[11] = tested on: U-251
[12] = tested on: SK-MEL-5
[13] = tested on: Hs-578T
[14] = tested on: HOP-62
[15] = tested on: COLO 205
[16] = tested on: OVCAR-5
[17] = tested on: NCI/ADR-RES
[18] = tested on: SK-OV-3
[19] = tested on: SNB-19
[20] = tested on: HOP-92

Compound | GI50 [1] | GI50 [2] | GI50 [3] | GI50 [4] | GI50 [5] | GI50 [6] | GI50 [7] | GI50 [8] | GI50 [9] | GI50 [10] | GI50 [11] | GI50 [12] | GI50 [13] | GI50 [14] | GI50 [15] | GI50 [16] | GI50 [17] | GI50 [18] | GI50 [19] | GI50 [20]
C#CCn1c(=O)c2ccccc2n(CC#C)c1=O | > 10 µM (inactive) | > 10 µM (inactive) | > 10 µM (inactive) | > 10 µM (inactive) | > 10 µM (inactive) | > 10 µM (inactive) | > 10 µM (inactive) | > 10 µM (inactive) | > 10 µM (inactive) | > 10 µM (inactive) | > 10 µM (inactive) | > 10 µM (inactive) | > 10 µM (inactive) | > 10 µM (inactive) | > 10 µM (inactive) | > 10 µM (inactive) | > 10 µM (inactive) | > 10 µM (inactive) | > 10 µM (inactive) | > 10 µM (inactive)
Nc1nc(Nc2ccccc2)sc1C(=O)c1ccco1 | 15.9 µM (inactive) | 17.2 µM (inactive) | 19.2 µM (inactive) | 13 µM (inactive) | 12.8 µM (inactive) | 30.8 µM (inactive) | 3.62 µM (inactive) | 8.55 µM (inactive) | 12.1 µM (inactive) | 15.7 µM (inactive) | 22.7 µM (inactive) | 11.1 µM (inactive) | 13.3 µM (inactive) | 27.5 µM (inactive) | 13.2 µM (inactive) | 34 µM (inactive) | 23.9 µM (inactive) | 28.6 µM (inactive) | 19.9 µM (inactive) | 35.6 µM (inactive)
COC1C(O)=C2C(=O)OC(C)(O)/C=C/C=C\C=C/C=C/C(c3ccccc3)NC(=O)/C=C/C=C/C=C/C=C/C2(C)C1O (stereo not given) | 0.00838 µM (active) | 0.0275 µM (active) | 0.00488 µM (active) | 0.0102 µM (active) | < 0.001 µM (active) | 0.0363 µM (active) | 0.383 µM (active) | 0.248 µM (active) | 0.00984 µM (active) | 0.0179 µM (active) | 0.00522 µM (active) | 0.0356 µM (active) | 0.0419 µM (active) | 0.0121 µM (active) | 0.00124 µM (active) | 0.129 µM (active) | 0.00861 µM (active) | 0.0253 µM (active) | 0.0258 µM (active) | 0.00146 µM (active)
O=C(/C=C/c1cccs1)c1ccccc1Cl | 12.4 µM (inactive) | 15.6 µM (inactive) | 14.8 µM (inactive) | 5.7 µM (inactive) | 15.8 µM (inactive) | 17.8 µM (inactive) | 8.71 µM (inactive) | 21.3 µM (inactive) | 0.615 µM (active) | 22.4 µM (inactive) | 13.5 µM (inactive) | 16.4 µM (inactive) | 14.1 µM (inactive) | 15.8 µM (inactive) | 18.8 µM (inactive) | 14.6 µM (inactive) | 15 µM (inactive) | 30.7 µM (inactive) | 15.6 µM (inactive) | 25.5 µM (inactive)
COC(C)(C)OCCN1CCN(CCN2C3=C(C=C(C(C)=O)C3)Sc3ccccc32)CC1 | 20.7 µM (inactive) | 19 µM (inactive) | 18.1 µM (inactive) | 17.3 µM (inactive) | 18.8 µM (inactive) | 20.3 µM (inactive) | 15.2 µM (inactive) | 15 µM (inactive) | 25.1 µM (inactive) | 20.1 µM (inactive) | 18.5 µM (inactive) | 17.5 µM (inactive) | 15.8 µM (inactive) | 19.4 µM (inactive) | 17.6 µM (inactive) | 25.4 µM (inactive) | 20.7 µM (inactive) | 35.8 µM (inactive) | 32.1 µM (inactive) | 29.5 µM (inactive)
N=C(N)N/N=C/c1cc(Cl)cc(Cl)c1O | 51.4 µM (inactive) | 71.1 µM (inactive) | 56.6 µM (inactive) | 50.4 µM (inactive) | 69.5 µM (inactive) | 45.3 µM (inactive) | 43.4 µM (inactive) | 48 µM (inactive) | 29.7 µM (inactive) | 37.3 µM (inactive) | 48.5 µM (inactive) | 37.4 µM (inactive) | 55.7 µM (inactive) | > 100 µM (inactive) | 34.2 µM (inactive) | 78.2 µM (inactive) | 35.5 µM (inactive) | > 100 µM (inactive) | 94.2 µM (inactive) | 65 µM (inactive)
O=[N+]([O-])c1cc2c(cc1/C=N/n1c(CO)nc3ccccc31)OCO2 | > 100 µM (inactive) | > 100 µM (inactive) | > 100 µM (inactive) | > 100 µM (inactive) | > 100 µM (inactive) | > 100 µM (inactive) | > 100 µM (inactive) | > 100 µM (inactive) | > 100 µM (inactive) | > 100 µM (inactive) | > 100 µM (inactive) | > 100 µM (inactive) | > 100 µM (inactive) | > 100 µM (inactive) | > 100 µM (inactive) | > 100 µM (inactive) | > 100 µM (inactive) | > 100 µM (inactive) | > 100 µM (inactive) | > 100 µM (inactive)
